Results: ChEMBL document CHEMBL5532666 (J Med Chem, 2024)

Columns and labels:
[1] = target: Serine/threonine-protein kinase 26 (Homo sapiens, UniProt Q9P289); assay: Binding affinity to C-terminal full length human MST4 expressed in permeabilized HEK293T cells incubated for 2 hrs by NanoBRET assay; type: cell-based
[2] = target: Maternal embryonic leucine zipper kinase (Homo sapiens) (UniProt Q14680); assay: Binding affinity to MELK (unknown origin) assessed as thermal stabilization by measuring change in melting temperature by DSF analysis
Sequence of Maternal embryonic leucine zipper kinase (Homo sapiens) (Q14680 whole entry, looked up): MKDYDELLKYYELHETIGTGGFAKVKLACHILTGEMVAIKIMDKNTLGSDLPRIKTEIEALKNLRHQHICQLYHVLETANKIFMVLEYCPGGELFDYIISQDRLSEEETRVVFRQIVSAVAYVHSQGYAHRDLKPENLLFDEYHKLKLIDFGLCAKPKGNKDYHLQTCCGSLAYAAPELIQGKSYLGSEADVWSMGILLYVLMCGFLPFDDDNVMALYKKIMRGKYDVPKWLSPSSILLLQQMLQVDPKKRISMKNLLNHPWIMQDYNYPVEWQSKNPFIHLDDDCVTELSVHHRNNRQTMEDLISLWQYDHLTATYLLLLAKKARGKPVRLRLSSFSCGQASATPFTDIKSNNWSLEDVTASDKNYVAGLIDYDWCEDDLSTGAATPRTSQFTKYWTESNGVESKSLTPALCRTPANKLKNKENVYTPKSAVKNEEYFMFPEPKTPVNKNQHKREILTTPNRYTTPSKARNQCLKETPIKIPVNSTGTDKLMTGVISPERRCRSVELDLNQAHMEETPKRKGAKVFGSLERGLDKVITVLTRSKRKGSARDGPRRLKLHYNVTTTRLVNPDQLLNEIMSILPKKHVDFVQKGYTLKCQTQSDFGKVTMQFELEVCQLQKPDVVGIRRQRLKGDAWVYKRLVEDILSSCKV

[3] = tested on: HCT-116; assay: Cell cycle arrest in human HCT-116 cells expressing […] assessed as G2/M phase cells at 10 uM incubated for 72 hrs by Hoechst33342 staining based analysis (reference value: 38%); type: functional
[4] = target: T1, Serine/threonine-protein kinase 4 (Homo sapiens, UniProt Q13043); assay: Binding affinity to N-terminal full length human MST1 expressed in intact HEK293T cells incubated for 2 hrs by NanoBRET assay; type: cell-based
T1 sequence (Q13043 whole entry): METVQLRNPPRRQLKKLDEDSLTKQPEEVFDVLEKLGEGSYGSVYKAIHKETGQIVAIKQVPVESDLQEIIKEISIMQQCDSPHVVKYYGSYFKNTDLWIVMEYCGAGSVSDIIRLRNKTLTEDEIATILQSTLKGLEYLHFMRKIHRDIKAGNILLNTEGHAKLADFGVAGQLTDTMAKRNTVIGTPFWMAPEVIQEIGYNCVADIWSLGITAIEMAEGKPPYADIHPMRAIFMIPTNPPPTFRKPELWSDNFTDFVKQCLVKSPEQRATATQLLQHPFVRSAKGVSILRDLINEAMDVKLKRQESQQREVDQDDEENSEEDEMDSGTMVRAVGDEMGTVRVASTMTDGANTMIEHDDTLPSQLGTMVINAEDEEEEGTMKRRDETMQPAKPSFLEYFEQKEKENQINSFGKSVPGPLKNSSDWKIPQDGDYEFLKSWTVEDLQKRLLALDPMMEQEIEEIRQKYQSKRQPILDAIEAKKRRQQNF

[5] = target: T2, Aurora kinase A (Homo sapiens) (UniProt O14965); assay: Binding affinity to STK6 (unknown origin) assessed as thermal stabilization by measuring change in melting temperature by DSF analysis
T2 sequence (whole entry): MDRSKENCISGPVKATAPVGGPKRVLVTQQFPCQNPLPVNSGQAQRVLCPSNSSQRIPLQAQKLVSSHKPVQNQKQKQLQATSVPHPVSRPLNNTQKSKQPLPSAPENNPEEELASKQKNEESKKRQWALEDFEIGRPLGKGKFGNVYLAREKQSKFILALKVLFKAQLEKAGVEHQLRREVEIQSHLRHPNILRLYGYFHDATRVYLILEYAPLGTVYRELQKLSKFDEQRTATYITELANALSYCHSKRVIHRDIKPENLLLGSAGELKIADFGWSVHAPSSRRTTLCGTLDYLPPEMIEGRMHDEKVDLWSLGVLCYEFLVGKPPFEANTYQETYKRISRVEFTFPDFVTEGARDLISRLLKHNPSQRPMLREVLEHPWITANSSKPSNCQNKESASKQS

[6] = target: LIM domain kinase 1 (Homo sapiens, UniProt P53667); assay: Inhibition of wildtype LIMK1 (unknown origin) assessed as residual activity at 1 uM relative to control
Sequence of LIM domain kinase 1 (P53667 whole entry, looked up, the tested form may be a part): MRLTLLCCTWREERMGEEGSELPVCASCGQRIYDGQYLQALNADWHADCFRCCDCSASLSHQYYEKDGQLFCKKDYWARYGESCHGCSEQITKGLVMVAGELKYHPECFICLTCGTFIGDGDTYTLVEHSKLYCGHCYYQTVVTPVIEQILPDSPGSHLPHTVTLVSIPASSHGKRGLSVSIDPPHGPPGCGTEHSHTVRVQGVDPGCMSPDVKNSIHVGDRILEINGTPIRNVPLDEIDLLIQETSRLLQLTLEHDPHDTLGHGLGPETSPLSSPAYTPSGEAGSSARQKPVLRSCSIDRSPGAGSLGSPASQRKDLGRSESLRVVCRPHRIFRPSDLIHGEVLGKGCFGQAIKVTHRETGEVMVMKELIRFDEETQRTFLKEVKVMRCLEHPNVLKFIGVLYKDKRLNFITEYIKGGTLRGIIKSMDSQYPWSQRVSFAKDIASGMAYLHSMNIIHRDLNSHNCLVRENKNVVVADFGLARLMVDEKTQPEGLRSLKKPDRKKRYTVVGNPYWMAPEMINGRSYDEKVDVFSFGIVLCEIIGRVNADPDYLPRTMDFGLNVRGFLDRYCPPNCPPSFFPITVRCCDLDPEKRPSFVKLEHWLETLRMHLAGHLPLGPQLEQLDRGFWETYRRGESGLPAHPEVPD

[7] = target: T3, Serine/threonine-protein kinase 4 (Homo sapiens) (UniProt Q13043); conditions: dose 10.0 µM
T3 sequence (whole entry): T1 sequence (Q13043 whole entry)
Description: Binding affinity to recombinant MST1 (unknown origin) kinase domain assessed as thermal stabilization by measuring change in melting temperature at 10 uM by DSF analysis

[8] = target: T4, Serine/threonine-protein kinase 3 (Homo sapiens) (UniProt Q13188); conditions: dose 10.0 µM
T4 sequence (whole entry): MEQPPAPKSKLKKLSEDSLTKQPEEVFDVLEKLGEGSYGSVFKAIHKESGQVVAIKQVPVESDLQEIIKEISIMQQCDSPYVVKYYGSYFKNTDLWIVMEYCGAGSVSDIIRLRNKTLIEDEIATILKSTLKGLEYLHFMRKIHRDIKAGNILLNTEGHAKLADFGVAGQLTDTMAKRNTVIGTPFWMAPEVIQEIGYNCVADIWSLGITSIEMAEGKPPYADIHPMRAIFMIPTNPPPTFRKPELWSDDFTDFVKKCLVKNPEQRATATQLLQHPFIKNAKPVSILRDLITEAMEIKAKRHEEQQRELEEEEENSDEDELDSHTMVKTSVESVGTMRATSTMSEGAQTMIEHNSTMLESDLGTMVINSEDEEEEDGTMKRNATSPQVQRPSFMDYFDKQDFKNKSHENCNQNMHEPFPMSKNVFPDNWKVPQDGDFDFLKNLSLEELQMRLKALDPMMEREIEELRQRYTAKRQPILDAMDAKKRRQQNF
Description: Binding affinity to recombinant MST2 (unknown origin) kinase domain assessed as thermal stabilization by measuring change in melting temperature at 10 uM by DSF analysis

[9] = target: T5, Serine/threonine-protein kinase 3 (Homo sapiens, UniProt Q13188); assay: Binding affinity to N-terminal full length human MST2 expressed in intact HEK293T cells incubated for 2 hrs by NanoBRET assay; type: cell-based
T5 sequence (Q13188 whole entry): T4 sequence (whole entry)

Sequence of Serine/threonine-protein kinase 26 (Q9P289 whole entry): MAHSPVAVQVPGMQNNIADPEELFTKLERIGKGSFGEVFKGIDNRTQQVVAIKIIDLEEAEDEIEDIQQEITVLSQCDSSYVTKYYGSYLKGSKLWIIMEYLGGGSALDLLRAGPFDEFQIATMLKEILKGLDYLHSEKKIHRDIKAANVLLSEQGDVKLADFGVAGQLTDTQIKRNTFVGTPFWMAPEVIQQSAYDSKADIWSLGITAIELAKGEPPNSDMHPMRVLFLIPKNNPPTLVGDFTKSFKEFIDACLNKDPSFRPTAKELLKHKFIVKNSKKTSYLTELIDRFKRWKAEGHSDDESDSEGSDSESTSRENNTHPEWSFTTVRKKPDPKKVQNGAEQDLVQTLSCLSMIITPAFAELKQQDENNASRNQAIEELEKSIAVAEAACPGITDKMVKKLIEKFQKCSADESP

EC50 [1]: 0.36 µM | ΔTm [2]: 5.1 °C | EC50 [4]: > 50 µM | ΔTm [5]: 5.1 °C | Activity [6]: 36.6% | ΔTm [7]: 1.4 °C | ΔTm [8]: 1.1 °C | EC50 [9]: > 50 µM
Compound: O=C1NCCCCCNc2nc(c3ccccc3n2)Nc2cc1[nH]n2
Activity [3]: 33%
